The source made the active and inactive calls.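 Rule for the calls: active = fitted curve reaches 40% activation at a concentration no higher than the top valid tested dose; inconclusive = flat fit between 30% and 70% activation, or poor fit; inactive = uptake decrease, flat fit within 30% of zero, the rest.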
Target: Scavenger receptor class B member 1 (Mus musculus) (UniProt Q61009)
Test: activators of SR-BI-mediated HDL uptake, dose response, cell-based, ldlA[mSR-BI] CHO, DiI fluorescence, cherry-pick (AID 602191);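 note: cell fluorescence from internalized DiI-labeled HDL after washing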;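 for AC40: potency of activators raising HDL uptake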;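 for activation (HDL uptake increase): 0% = median of DMSO wells and 100% = twice the DMSO signal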
Details: ldlA[mSR-BI] CHO cells, 3 h

Scavenger receptor class B member 1 (Mus musculus), sequence (Q61009 whole entry, looked up): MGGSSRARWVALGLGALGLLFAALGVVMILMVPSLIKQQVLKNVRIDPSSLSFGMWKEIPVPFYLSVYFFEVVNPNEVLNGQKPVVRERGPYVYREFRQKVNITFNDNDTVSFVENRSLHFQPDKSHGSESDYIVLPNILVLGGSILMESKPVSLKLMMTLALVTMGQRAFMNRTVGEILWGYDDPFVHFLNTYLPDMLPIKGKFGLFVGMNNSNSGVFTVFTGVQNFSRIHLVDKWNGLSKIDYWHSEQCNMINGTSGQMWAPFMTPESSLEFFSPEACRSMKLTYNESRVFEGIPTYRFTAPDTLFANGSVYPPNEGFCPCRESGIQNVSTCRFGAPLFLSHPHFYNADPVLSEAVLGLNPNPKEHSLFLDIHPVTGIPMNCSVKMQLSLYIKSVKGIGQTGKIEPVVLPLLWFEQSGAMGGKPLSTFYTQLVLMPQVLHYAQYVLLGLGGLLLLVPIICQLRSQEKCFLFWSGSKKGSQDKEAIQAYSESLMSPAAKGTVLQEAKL

| AC40 | Compound |
| --- | --- |
| > 35 µM (inactive) | COCCNC(=O)c1onc(CSc2cccc(C)c2)c1C(=O)O |
| 33.2 µM | COc1ccc(S(=O)(=O)N(C)C[C@H]2Oc3c(NC(=O)Nc4ccc(C(F)(F)F)cc4)cccc3C(=O)N([C@H](C)CO)C[C@@H]2C)cc1 |
| > 35 µM (inactive) | CCn1c(C(=O)O)c(CC(=O)NC2CCCCCC2)c2ccccc21 |
| > 35 µM (inactive) | Cc1c(CCOC(=O)C23CC4(C)CC(C)(CC(C)(C4)C2)C3)sc[n+]1CC(=O)c1ccccc1 |

Same assay, conditions: ldlA[mSR-BI] CHO cells, 3 h, at 11 µM (top of the series)

| activation (HDL uptake increase) | Compound |
| --- | --- |
| -10.2% (inactive) | CC(C)C[C@@H](CN1CCCC1CN1C(=S)NC[C@@H]1Cc1ccc(O)cc1)N1C[C@H](Cc2ccc(O)cc2)N(CC2CCCCC2)C1=S (stereo partly drawn) |

Same assay, conditions: ldlA[mSR-BI] CHO cells, 3 h, at 35 µM (top of the series)

| Compound | activation (HDL uptake increase) |
| --- | --- |
| Cc1ccc(S(=O)(=O)NC(=O)Nc2nnc(C3CC3)s2)cc1 | 9.12% (inactive) |
| Cc1ccc(S(=O)(=O)N2CCC(=O)N(CCOCc3cccc(F)c3)CC2)cc1 | 5.46% (inactive) |
| COc1ccc(N2C(=O)CCC(C(=O)N3CCOCC3)C2c2ccc(F)cc2)cc1 (stereo not drawn) | 5.04% (inactive) |
| COc1ccc(OC)c(S(=O)(=O)N2CCN(C(=O)CCc3ccccc3)CC2)c1 | -1.31% (inactive) |
| O=C(COc1ccc([N+](=O)[O-])cc1)NCc1cccnc1 | -4.82% (inactive) |
| CC(C)NC(=O)c1ccc(CS(=O)(=O)c2ccc(Br)cc2)o1 | -7.98% (inactive) |
| Cn1cc(CN2CCC(O)CC2)c(-c2ccc(Oc3ccccc3)cc2)n1 | -5.7% (inactive) |
| COc1ccccc1C(=O)NCC(=O)NCc1cc(=O)n(C)c(=O)n1C | -3.18% (inactive) |
| O=C1CCC(C(=O)N2CCCCCCC2)CN1Cc1cccc(C(F)(F)F)c1 (stereo not drawn) | -0.452% (inactive) |
| COC1CCCN(Cc2c(C(=O)N3CCN(C4CCCCC4)CC3)nc3ccccn23)C1 (stereo not drawn) | -7.41% (inactive) |
| CCOC(CNC(=O)C1CCN(S(=O)(=O)c2ccc3nc4c(c(C(=O)O)c3c2)CCCCC4)CC1)OCC | 5.08% (inactive) |
| O=C(CN1C(=O)NC2(CCCC2)C1=O)Nc1ccc(Cl)c(C(F)(F)F)c1 | -11.2% (inactive) |
| O=C(NCc1cccs1)C1CCCN(C(=O)Nc2ccccc2)C1 (stereo not drawn) | 7.76% (inactive) |
| Nc1nc(SCC(=O)OCc2ccccc2)[nH]c(=O)c1NC(=O)c1ccco1 | 4.16% (inactive) |
| C/C=C(\C)C(=O)OC1CC(C)(C)C[C@H]2C3=CC[C@@H]4[C@@]5(C)CCC(O[C@@H]6O[C@@H](C(=O)O)[C@@H](O)C(O[C@@H]7OC[C@H](O)[C@@H](O)[C@@H]7O[C@@H]7OC(CO)C(O)[C@@H](O)[C@@H]7O)C6O[C@@H]6OC(CO)C(O)C(O)C6O)[C@@](C)(CO)[C@@H]5CC[C@]4(C)[C@]3(C)CC(O)[C@@]12CO (stereo partly drawn) | -2.08% (inactive) |
| C=CCn1c(SCC(=O)N(CC)C2CCS(=O)(=O)C2)nnc1-c1ccccc1 (stereo not drawn) | -7.41% (inactive) |
| Cc1ccc(NC(=O)CSCC(N)=O)cc1C | -9.19% (inactive) |
| COCCNC(=O)c1onc(CSc2cccc(OC)c2)c1C(=O)O | 11.9% (inactive) |
| COCCNC(=O)c1cnn2c1NC(c1ccco1)CC2C(F)(F)F (stereo not drawn) | -4% (inactive) |

| Compound | activation (HDL uptake increase) |
| --- | --- |
| O=C(CSc1nnc(Cc2cccs2)n1-c1ccccc1)NC1CCCCC1 | -15.7% (inactive) |
| Cc1csc(NC(=O)Cc2ccccc2[N+](=O)[O-])n1 | 1.17% (inactive) |
| Cc1ccc(NC(=O)COC(=O)Cn2ccc(=O)[nH]c2=O)cc1C | -10.8% (inactive) |
| Cc1cc(N2C(=O)C3C4C=CC(C4)C3C2=O)no1 (stereo not drawn) | -2.45% (inactive) |
| O=C(CCNC(=O)c1ccccc1Cl)NCC(c1ccc(F)cc1)N1CCOCC1 (stereo not drawn) | -2.65% (inactive) |
| CCOC(=O)N1CCN(C(=O)c2nn(C)c3c2CSc2ccccc2-3)CC1 | -12.2% (inactive) |
| O=S(=O)(Nc1ccccc1OC(F)F)c1ccc(S(=O)(=O)N2CCCC2)cc1 | -11.8% (inactive) |
| Cc1c(C(=O)NCCN2CCOC2=O)oc2c(F)cccc12 | -0.811% (inactive) |
| CN(c1cccc(NC(=O)CN(c2ccc(C34CC5CC(CC(C5)C3)C4)cc2)S(C)(=O)=O)c1)S(C)(=O)=O | 17.6% (inactive) |
| Cc1ccc(S(=O)(=O)N(CCC(=O)NCC(c2ccccc2)N(C)C)c2ccccc2)cc1 (stereo not drawn) | -5.72% (inactive) |
| O=C(C[C@H]1C/C=C\C[C@@H](Cc2ccc(F)cc2)C(=O)OC[C@H]2CCCN2C1=O)N[C@H](CO)Cc1ccccc1 | 6.35% (inactive) |
| CCc1ccc2[nH]c(=O)c(CN(CCN(C)C)C(=O)Nc3ccccc3OC)cc2c1 | -2.31% (inactive) |
| O=C(NCc1cccc(Cl)c1)c1ccc(CS(=O)Cc2ccccc2Cl)o1 (stereo not drawn) | 0.636% (inactive) |
| O=C(COC(=O)c1ccc[nH]c1=O)Nc1cc(S(=O)(=O)N2CCCCCC2)ccc1Cl | -9.61% (inactive) |
| COc1ccc(NC(=O)C(Sc2nnc3ccccn23)c2ccccc2)cc1Cl (stereo not drawn) | -16.3% (inactive) |
| COc1ccc2oc(C(=O)OCC(=O)Nc3ccc(C(=O)N(C)C)cc3)c(C)c2c1 | -13.1% (inactive) |
| CSc1ccc(S(=O)(=O)NCC(=O)OCC(=O)N(C)Cc2ccccc2)cc1[N+](=O)[O-] | 4.31% (inactive) |
| Cc1cccc(NC(=O)CCC(=O)OCc2ccc(Br)cc2)c1 | -7.9% (inactive) |

The next lines start with the values.

| activation (HDL uptake increase) | Compound |
| --- | --- |
| -5.76% (inactive) | CCCCCC1CC(CC(=O)O)C(=O)O1 (stereo not drawn) |
| -4.96% (inactive) | CCCn1c(N)c(N(CCOC)C(=O)c2ccc(S(=O)(=O)N3CCOCC3)cc2)c(=O)[nH]c1=O |
| -17.5% (inactive) | O=C(Nc1ccc(S(=O)(=O)Nc2ccccc2F)cc1)N1CCCCC1 |
| -2.51% (inactive) | CCN(CC)CCCNC(CC(=O)Nc1cccc([N+](=O)[O-])c1)C(=O)O (stereo not drawn) |
| -0.486% (inactive) | Cc1cccc(NC(=O)CN2CCN(C(=O)C3CCCO3)CC2)c1C (stereo not drawn) |
| -16.4% (inactive) | O=S(=O)(c1ccccc1F)N1CCN(Cc2cc3c(cc2Br)OCCO3)CC1 |
| 7.18% (inactive) | COCCCNC(=O)C1CCC(CNS(=O)(=O)c2ccc3c(c2)N(C(C)=O)CCO3)CC1 (stereo not drawn) |
| -6.55% (inactive) | O=C1NCCCC1C(=O)NCCNC(=O)C(F)(F)F (stereo not drawn) |
| -4.31% (inactive) | COc1ccccc1N1CCN(C2CCCN(C(=O)c3ccccn3)C2)CC1 (stereo not drawn) |
| -14.9% (inactive) | O=C(COc1ccccc1Cc1ccccc1)Nc1cccnc1 |
| -5.05% (inactive) | NCCCC[C@H]1CNC(=O)C(=O)N1CCc1cccc2ccccc12 |
| -9.52% (inactive) | CC(C)(C)OC(=O)NCCCC[C@H](NC(=O)c1nc[nH]c1C(=O)NC(c1ccccc1)c1ccccc1)C(=O)OC(C)(C)C |
| 11.6% (inactive) | CCN(CC(=O)Nc1c(F)cccc1F)C(=O)C1CCN(S(=O)(=O)c2ccc(F)cc2)CC1 |
| -5.05% (inactive) | O=C(CCC(=O)OCC(=O)c1ccc([N+](=O)[O-])cc1)Nc1ccccc1Cl |
| -3.25% (inactive) | CCCCc1nc2cc(C(=O)NCc3ccccn3)ccc2o1 |
| -7.7% (inactive) | C[C@H](CO)N1C[C@H](C)[C@H](CN(C)C)Oc2ccc(NS(=O)(=O)c3ccc(F)cc3)cc2CC1=O |

— PubChem BioAssay AID602191 (Broad Institute, 2012)
